Drawing on patent US20250179103A1, “6-OXODECAHYDROPYRROLO[1,2-A][1,5]DIAZOCINE AND 6-OXODECAHYDRO-4H-PYRROLO[2,1-D][1,5]THIAZOCINE DERIVATIVES AS STAT3 AND STAT6 MODULATORS FOR THE TREATMENT OF CANCER AND INFLAMMATORY CONDITIONS” (Recludix Pharma, Inc., priority 2022, published 2025), this text covers IC50 for 16 compounds.

Structures are written as SMILES.

For assay [1], the target named is T1, Recombinant STAT3 protein (STAT3(G127-I722)) (Homo sapiens, UniProt P40763).
T1 construct: Recombinant STAT3 protein (STAT3(G127-I722))
Briefly: STAT3 Fluorescence Polarization (FP) Assay. Format: binding. As to conditions: STAT3(G127-I722) 25 nM, probe 5-FAM-GpYLPQTV-NH2 2 nM, 45-minute incubation. The procedure, abridged:
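Fluorescence polarization after a 45-min room-temperature incubation measured compound displacement of a 2 nM fluorescein-labelled phosphotyrosine peptide (5-FAM-GpYLPQTV-NH2) from 25 nM recombinant STAT3(G127-I722). Buffer was 10 mM HEPES pH 7.4 with 1% DMSO final. IC50s were fitted by nonlinear regression of mP against log concentration.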
In general terms: In fluorescence polarisation assays a small probe gives low polarisation when free and higher when bound to something large.

The target of assay [2] is T2, Recombinant STAT6 protein (STAT6(W123-T658)) (Homo sapiens, UniProt P42226).
T2 construct: Recombinant STAT6 protein (STAT6(W123-T658))
T2 sequence (P42226 123-658): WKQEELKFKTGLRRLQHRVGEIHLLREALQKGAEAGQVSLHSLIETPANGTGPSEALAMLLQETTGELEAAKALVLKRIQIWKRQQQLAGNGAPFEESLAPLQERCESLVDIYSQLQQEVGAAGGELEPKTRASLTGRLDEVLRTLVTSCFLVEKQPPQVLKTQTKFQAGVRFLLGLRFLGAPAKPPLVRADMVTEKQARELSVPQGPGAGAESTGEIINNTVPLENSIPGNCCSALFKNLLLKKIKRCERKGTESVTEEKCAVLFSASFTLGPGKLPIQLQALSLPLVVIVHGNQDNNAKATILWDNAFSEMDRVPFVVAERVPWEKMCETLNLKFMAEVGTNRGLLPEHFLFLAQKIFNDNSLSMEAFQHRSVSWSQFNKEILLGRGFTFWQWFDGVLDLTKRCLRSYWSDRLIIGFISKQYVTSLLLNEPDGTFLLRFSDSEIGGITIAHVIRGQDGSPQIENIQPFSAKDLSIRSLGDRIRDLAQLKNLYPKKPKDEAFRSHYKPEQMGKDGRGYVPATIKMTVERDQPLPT
Briefly: STAT6 Fluorescence Polarization (FP) Assay. It is filed as binding. To be noted: STAT6(W123-T658) 250 nM, probe 5-FAM-ApYKPFQDLI-NH2 2 nM, 45-minute incubation. The procedure, abridged:
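Displacement of a fluorescent phosphotyrosine peptide (5-FAM-ApYKPFQDLI-NH2, 2 nM) from STAT6(W123-T658) (250 nM), 1% DMSO, pH 7.4 HEPES buffer. After 45 min at room temperature, polarization (mP) was plotted versus log compound concentration and fitted by nonlinear regression to give IC50.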

T1 sequence (P40763 127-722): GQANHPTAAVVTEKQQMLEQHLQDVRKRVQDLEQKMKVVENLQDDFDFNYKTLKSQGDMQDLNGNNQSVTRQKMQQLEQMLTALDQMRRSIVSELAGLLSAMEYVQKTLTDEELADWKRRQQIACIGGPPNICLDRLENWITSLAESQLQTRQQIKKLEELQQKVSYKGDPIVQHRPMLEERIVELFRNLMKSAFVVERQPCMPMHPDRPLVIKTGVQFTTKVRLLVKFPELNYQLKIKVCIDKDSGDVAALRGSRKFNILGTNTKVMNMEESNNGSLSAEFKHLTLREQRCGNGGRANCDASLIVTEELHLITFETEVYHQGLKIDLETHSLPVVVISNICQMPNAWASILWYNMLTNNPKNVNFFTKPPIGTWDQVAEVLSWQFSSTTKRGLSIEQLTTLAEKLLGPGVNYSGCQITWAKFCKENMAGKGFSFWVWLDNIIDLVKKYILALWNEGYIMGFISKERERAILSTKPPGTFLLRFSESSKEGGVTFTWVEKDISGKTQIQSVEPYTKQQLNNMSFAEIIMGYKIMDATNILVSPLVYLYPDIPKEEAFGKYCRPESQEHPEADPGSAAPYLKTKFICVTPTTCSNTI

What is called IC50 is the concentration at which inhibition is half-maximal. In the case of `CCC(=O)NCCCN(C)C(=O)[C@@H]1CC[C@@H]2CCN(C(C)=O)C[C@H](NC(=O)c3cc4cc(C(=O)P(=O)(O)O)ccc4[nH]3)C(=O)N21` [Compound 27, (2-(((5S,8S,10aR)-3-acetyl-8-(methyl(3-propionamidopropyl)carbamoyl)-6-oxodecahydropyrrolo[1,2-a][1,5]diazocin-5-yl)carbamoyl)-1H-indole-5-carbonyl)phosphonic acid], the IC50 in assay [1] was in the range of 1 to 10 µM; in assay [2], 3 to 30 µM.

Take `CCC(=O)NCCCN(C)C(=O)[C@@H]1CC[C@@H]2CCN(C(C)=O)C[C@H](NC(=O)c3cc4cc(C(F)(F)P(=O)(O)O)ccc4[nH]3)C(=O)N21` [Compound 28, ((2-(((5S,8S,10aR)-3-acetyl-8-(methyl(3-propionamidopropyl)carbamoyl)-6-oxodecahydropyrrolo[1,2-a][1,5]diazocin-5-yl)carbamoyl)-1H-indol-5-yl)difluoromethyl)phosphonic acid]: the IC50 in assay [1] lay in the range of 1 to 10 µM; in assay [2] it was 0.3 to 3 µM.

As for `CC(=O)N1CC[C@H]2CC[C@@H](C(=O)N(C)C)N2C(=O)[C@@H](NC(=O)c2cc3cc(C(F)(F)P(=O)(O)O)ccc3[nH]2)C1` [Compound 29, ((2-(((5S,8S,10aR)-3-acetyl-8-(dimethylcarbamoyl)-6-oxodecahydropyrrolo[1,2-a][1,5]diazocin-5-yl)carbamoyl)-1H-indole-5-yl)difluoromethyl)phosphonic acid], the 50% inhibitory concentration (IC50) in assay [1] lay within 1 to 10 µM; in assay [2] it was 0.3 to 3 µM.

`CC(=O)N1CC[C@H]2CC[C@@H](C(=O)N(C)c3ccccc3)N2C(=O)[C@@H](NC(=O)c2cc3cc(C(F)(F)P(=O)(O)O)ccc3[nH]2)C1` [Compound 30]: the half-maximal inhibitory concentration (IC50) in assay [1] lay within 1 to 10 µM; in assay [2], 0.3 to 3 µM.

Consider `CC(=O)N1CC[C@H]2CC[C@@H](C(=O)N[C@H]3CCC[C@H]3N)N2C(=O)[C@@H](NC(=O)c2cc3cc(C(F)(F)P(=O)(O)O)ccc3[nH]2)C1` [Compound 31, ((2-(((5S,8S,10aR)-3-acetyl-8-(((1S,2R)-2-aminocyclopentyl)carbamoyl)-6-oxodecahydropyrrolo[1,2-a][1,5]diazocin-5-yl)carbamoyl)-1H-indol-5-yl)difluoromethyl)phosphonic acid], for which the 50% inhibitory concentration (IC50) in assay [1] was 1 to 10 µM; in assay [2] it was 0.3 to 3 µM.

As for `CC(=O)N[C@H]1CCC[C@@H]1NC(=O)[C@@H]1CC[C@@H]2CCN(C(C)=O)C[C@H](NC(=O)c3cc4cc(C(F)(F)P(=O)(O)O)ccc4[nH]3)C(=O)N21` [Compound 32, ((2-(((5S,8S,10aR)-8-(((1S,2S)-2-acetamidocyclopentyl)carbamoyl)-3-acetyl-6-oxodecahydropyrrolo[1,2-a][1,5]diazocin-5-yl)carbamoyl)-1H-indol-5-yl)difluoromethyl)phosphonic acid], the IC50 in assay [1] was in the range of 1 to 10 µM; in assay [2] it was 3 to 30 µM.

`CCN(C)CCCN(C)C(=O)[C@@H]1CC[C@@H]2CCN(C(C)=O)C[C@H](NC(=O)c3cc4cc(C(F)(F)P(=O)(O)O)ccc4[nH]3)C(=O)N21` [Compound 33, ((2-(((5S,8S,10aR)-3-acetyl-8-((3-(ethyl(methyl)amino)propyl)(methyl)carbamoyl)-6-oxodecahydropyrrolo[1,2-a][1,5]diazocin-5-yl)carbamoyl)-1H-indol-5-yl)difluoromethyl)phosphonic acid]: the IC50 in assay [1] was in the range of 1 to 10 µM; in assay [2] it was 3 to 30 µM.

For `CCC(=O)N1CC[C@@H](NC(=O)[C@@H]2CC[C@@H]3CCN(C(C)=O)C[C@H](NC(=O)c4cc5cc(C(F)(F)P(=O)(O)O)ccc5[nH]4)C(=O)N32)C1` [Compound 34, ((2-(((5S,8S,10aR)-3-aceytl-6-oxo-8-(((R)-1-propionylpyrrolidin-3-yl)carbamoyl)decahydropyrrolo[1,2-a][1,5]diazocin-5-yl)carbamoyl)-1H-indol-5-yl)difluoromethyl)phosphonic acid], the IC50 in assay [1] is 0.1 to 1 µM; in assay [2] it was 0.3 to 3 µM.

Regarding `CC(=O)N1CC[C@H]2CC[C@@H](C(=O)N3CCN(C(=O)OCc4ccccc4)CC3)N2C(=O)[C@@H](NC(=O)c2cc3cc(C(F)(F)P(=O)(O)O)ccc3[nH]2)C1` [Compound 35, ((2-(((5S,8S,10aR)-3-acetyl-8-(4-((benzyloxy)carbonyl)piperazine-1-carbonyl)-6-oxodecahydropyrrolo[1,2-a][1,5]diazocin-5-yl)carbamoyl)-1H-indol-5-yl)difluoromethyl)phosphonic acid], the IC50 in assay [1] was in the range of 1 to 10 µM; in assay [2], 0.3 to 3 µM.

With `CNC(=O)[C@@H]1CC[C@@H]2CCN(C(C)=O)C[C@H](NC(=O)c3cc4cc(C(F)(F)P(=O)(O)O)ccc4[nH]3)C(=O)N21` [Compound 36, ((2-(((5S,8S,10aR)-3-acetyl-8-(methylcarbamoyl)-6-oxodecahydropyrrolo[1,2-a][1,5]diazocin-5-yl)carbamoyl)-1H-indol-5-yl)difluoromethyl)phosphonic acid], the IC50 in assay [1] fell in the range of 1 to 10 µM; in assay [2], 0.3 to 3 µM.

For `CC(=O)N1CC[C@H]2CC[C@@H](C(=O)N3CC(c4cc[nH]c(=O)c4)CC34CC4)N2C(=O)[C@@H](NC(=O)c2ccc3ccc(C(F)(F)P(=O)(O)O)cc3c2)C1` (stereo partly drawn) [Compound 37, ((7-(((5S,8S,10aR)-3-acetyl-6-oxo-8-(6-(2-oxo-1,2-dihydropyridin-4-yl)-4-azaspiro[2.4]heptane-4-carbonyl)decahydropyrrolo[1,2-a][1,5]diazocin-5-yl)carbamoyl)naphthalen-2-yl)difluoromethyl)phosphonic acid], the values for the IC50 in assay [1] and in assay [2] were over 10 µM and at most 0.3 µM, respectively.

For the compound `CC(=O)N1CC[C@H](NC(=O)c2cc3cc(C(F)(F)P(=O)(O)O)ccc3s2)C(=O)N2[C@H](CC[C@H]2C(=O)N2CC(c3cccnc3)C2)C1` [Compound 40, ((2-(((5S,8S,10aR)-2-acetyl-6-oxo-8-(3-(pyridin-3-yl)azetidine-1-carbonyl)decahydropyrrolo[1,2-a][1,4]diazocin-5-yl)carbamoyl)benzo[b]thiophen-5-yl)difluoromethyl)phosphonic acid], the half-maximal inhibitory concentration (IC50) in assay [1] was at most 0.1 µM; in assay [2], 3 to 30 µM.

As for `CC(=O)N1CC[C@H]2CC[C@@H](C(=O)N3C[C@@H](C#N)C[C@@H]3Cc3ccccc3)N2C(=O)[C@@H](NC(=O)c2cc3cc(C(F)(F)P(=O)(O)O)ccc3s2)C1` [Compound 42, ((2-(((5S,8S,10aR)-3-acetyl-8-((2R,4S)-2-benzyl-4-cyanopyrrolidine-1-carbonyl)-6-oxodecahydropyrrolo[1,2-a][1,5]diazocin-5-yl)carbamoyl)benzo[b]thiophen-5-yl)difluoromethyl)phosphonic acid], the IC50 in assay [1] was in the range of 1 to 10 µM; in assay [2], 0.3 to 3 µM.

Consider `CC(=O)N1CC[C@H]2CC[C@@H](C(=O)N3C[C@H](C#N)C[C@@H]3Cc3ccccc3)N2C(=O)[C@@H](NC(=O)c2cc3cc(C(F)(F)P(=O)(O)O)ccc3s2)C1` [Compound 43, ((2-(((5S,8S,10aR)-3-acetyl-8-((2R,4R)-2-benzyl-4-cyanopyrrolidine-1-carbonyl)-6-oxodecahydropyrrolo[1,2-a][1,5]diazocin-5-yl)carbamoyl)benzo[b]thiophen-5-yl)difluoromethyl)phosphonic acid], for which the figures for the half-inhibitory concentration (IC50) in assay [1] and in assay [2] were 1 to 10 µM and 0.3 to 3 µM, respectively.

For the compound `CC(=O)N1CC[C@H]2CC[C@@H](C(=O)Nc3c(C)cc(-c4ccccc4)cc3C)N2C(=O)[C@@H](NC(=O)c2cc3cc(C(F)(F)P(=O)(O)O)ccc3s2)C1` [Compound 44, ((2-(((5S,8S,10aR)-3-acetyl-8-((3,5-dimethyl-[1,1′-biphenyl]-4-yl)carbamoyl)-6-oxodecahydropyrrolo[1,2-a][1,5]diazocin-5-yl)carbamoyl)benzo[b]thiophen-5-yl)difluoromethyl)phosphonic acid], the half-maximal inhibitory concentration (IC50) in assay [1] was 0.1 to 1 µM; in assay [2], 3 to 30 µM.

Turning to `CC(=O)N1CC[C@H]2CC[C@@H](C(=O)N(C)c3ccccc3)N2C(=O)[C@@H](NC(=O)/C(C)=C/c2cccc(C(F)(F)P(=O)(O)O)c2)C1` [Compound 45, ((3-((E)-3-(((5S,8S,10aR)-3-acetyl-8-(methyl(phenyl)carbamoyl)-6-oxodecahydropyrrolo[1,2-a][1,5]diazocin-5-yl)amino)-2-methyl-3-oxoprop-1-en-1-yl)phenyl)difluoromethyl)phosphonic acid], the values for the IC50 in assay [1] and in assay [2] were over 10 µM and over 30 µM, respectively.
